The text below walks through data of patent US20250115634A1, “LIGAND, METHOD FOR PREPARING SAME, AND USE THEREOF” (priority 2022, published 2025).

Experiment [1] has as its target T1, ASGPR receptor (Homo sapiens, UniProt P07306+P07307).
T1 construct: HepG2 cells grown to confluence of greater than 80%; endogenous in cells; host or cells: HepG2
T1 sequence (P07306 1-291): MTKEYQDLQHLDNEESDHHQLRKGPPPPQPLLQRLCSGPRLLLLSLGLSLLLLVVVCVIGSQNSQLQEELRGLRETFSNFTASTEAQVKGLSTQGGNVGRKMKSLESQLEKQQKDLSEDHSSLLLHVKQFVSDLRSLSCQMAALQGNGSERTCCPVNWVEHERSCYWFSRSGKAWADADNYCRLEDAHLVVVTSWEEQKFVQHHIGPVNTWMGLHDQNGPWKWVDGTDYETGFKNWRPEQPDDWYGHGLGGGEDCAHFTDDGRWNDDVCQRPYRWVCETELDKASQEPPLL
T1 sequence (P07307 1-311): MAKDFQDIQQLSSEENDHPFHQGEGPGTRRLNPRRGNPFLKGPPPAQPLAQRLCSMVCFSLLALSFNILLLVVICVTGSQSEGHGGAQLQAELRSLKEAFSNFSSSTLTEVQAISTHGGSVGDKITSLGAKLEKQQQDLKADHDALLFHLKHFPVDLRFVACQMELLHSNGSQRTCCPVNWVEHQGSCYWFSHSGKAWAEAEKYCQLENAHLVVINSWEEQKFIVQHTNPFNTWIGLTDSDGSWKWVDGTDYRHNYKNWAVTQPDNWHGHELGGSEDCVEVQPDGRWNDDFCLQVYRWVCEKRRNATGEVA
In words: Binding of Cy5-labelled ligands to ASGPR on HepG2 cell line (Kd). The following applies: HepG2 cells, incubated at room temperature in the dark for 30 min. As to the method:
(§1) The binding rate of the ligand of the present disclosure to the ASGPR receptor of liver cancer cells was tested, with the ligand with hepatocellular ASGPR-targeting property, loaded in Inclisiran, a small interfering nucleic acid drug marketed by Alnylam, as a positive control (PC).
The ligand-receptor dissociation constant (Kd, which is the drug concentration required for half of the maximum effect, i.e. 50% of the receptors are occupied) was used as a measure of ligand-receptor binding capacity, and the lower the Kd value, the higher the binding capacity.
• 1. HepG2 cells grown to confluence of greater than 80% and in a good state were digested, centrifuged and counted. • 2. The test compounds were diluted with PBS to various concentration gradients. • 3. The cells were washed once with PBS, added with 100 μL of the prepared compounds, and incubated at room temperature in the dark for 30 min. • 4. After incubation, the cells were washed twice with 1 mL of PBS and detected on machine.

The target of experiment [2] is T2, ASGPR receptor (Mus musculus, UniProt P24721+P34927).
T2 construct: C57 mouse primary liver cells were isolated; endogenous in cells; host or cells: C57 mouse primary liver cells
T2 sequence (P34927 1-284): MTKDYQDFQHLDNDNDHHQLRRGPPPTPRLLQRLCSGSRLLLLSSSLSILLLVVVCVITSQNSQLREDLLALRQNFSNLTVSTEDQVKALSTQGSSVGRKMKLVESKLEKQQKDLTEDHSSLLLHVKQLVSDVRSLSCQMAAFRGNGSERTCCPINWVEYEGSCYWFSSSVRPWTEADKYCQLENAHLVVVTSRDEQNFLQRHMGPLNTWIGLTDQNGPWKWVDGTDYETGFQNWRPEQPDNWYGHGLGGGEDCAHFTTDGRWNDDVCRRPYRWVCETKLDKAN
T2 sequence (P24721 1-301): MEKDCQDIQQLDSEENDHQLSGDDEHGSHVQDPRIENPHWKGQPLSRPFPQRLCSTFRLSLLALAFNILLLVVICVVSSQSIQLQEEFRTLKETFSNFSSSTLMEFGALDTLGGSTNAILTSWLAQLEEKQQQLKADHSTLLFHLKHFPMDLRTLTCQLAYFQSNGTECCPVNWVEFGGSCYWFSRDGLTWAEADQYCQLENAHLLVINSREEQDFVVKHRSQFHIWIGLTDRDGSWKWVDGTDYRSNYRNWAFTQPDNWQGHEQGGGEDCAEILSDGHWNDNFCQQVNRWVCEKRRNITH
The experiment in a line: Binding of Cy5-labelled ligands to ASGPR on primary mouse liver cells (Kd). The following applies: C57 mouse primary liver cells, incubated 37° C. in the dark for 30 min, trypsin to remove surface fluorescence. The protocol: as §1
The ligand-receptor dissociation constant (Kd, which is the drug concentration required for half of the maximum effect, i.e. 50% of the receptors are occupied) was used as a measure of ligand-receptor binding capacity; and the lower the Kd value, the higher the binding capacity.
C57 mouse primary liver cells were isolated, and the cells were in a good state, had viability of 92%, and were at a density of 2×10^5 cells/400 μL.
The test compounds were dissolved with PBS and then diluted with complete medium for primary liver cells to various concentration gradients.
The cells was added with 100 μL of the test compound solution prepared according to the set concentration gradients (the test compounds was first prepared with PBS into a stock solution, which was then diluted to the set concentration gradients with complete medium) and incubated at 37° C. in the dark for 30 min.
After incubation, the cells were washed once with 500 μL of PBS.
The cells were added with typsin to remove fluorescence on the cell surface.
The cells were washed again with 500 μL of PBS and detected on machine.

SMILES strings stand for the structures.

Broadly, the Kd is the free concentration of one partner at which half of the binding sites on the other are occupied at equilibrium, for simple one-to-one binding. As for `CC[N+]1=C(/C=C/C=C/C=C2/c3ccccc3N(CCCCCC(=O)NCCNC(=O)CCCCCCCCCCCNC(COCCC(=O)NCCCNC(=O)CCCCOC3OC(CO)C(O)C(O)C3NC(C)=O)(COCCC(=O)NCCCNC(=O)CCCCOC3OC(CO)C(O)C(O)C3NC(C)=O)COCCC(=O)NCCCNC(=O)CCCCOC3OC(CO)C(O)C(O)C3NC(C)=O)C2(C)C)C(C)(C)c2ccccc21` (centres unmarked) [PC-Cy5, reference compound], the Kd at ASGPR receptor [1] came out at 40.2 nM; on ASGPR receptor [2], 0.408 nM. In the case of `CC[N+]1=C(/C=C/C=C/C=C2/c3ccccc3N(CCCCCC(=O)NCCNC(=O)CCC(=O)Nc3cc(C(=O)NCCOCCOC4OC(CO)C(O)C(O)C4NC(C)=O)cc(C(=O)Nc4cc(C(=O)NCCOCCOC5OC(CO)C(O)C(O)C5NC(C)=O)cc(C(=O)NCCOCCOC5OC(CO)C(O)C(O)C5NC(C)=O)c4)c3)C2(C)C)C(C)(C)c2ccccc21` (centres unmarked) [TC17A-Cy5], binding at ASGPR receptor [2] was put at a Kd of 1.26 nM. Still for that read-out and setting: for `CC[N+]1=C(/C=C/C=C/C=C2/c3ccccc3N(CCCCCC(=O)NCCNC(=O)CCCCCCCCCCC(=O)N3C[C@H](OCC(=O)NCCOCCOC4OC(CO)C(O)C(O)C4NC(C)=O)C[C@H]3C(=O)NC(C)(COCCC(=O)NCCOCCOC3OC(CO)C(O)C(O)C3NC(C)=O)COCCC(=O)NCCOCCOC3OC(CO)C(O)C(O)C3NC(C)=O)C2(C)C)C(C)(C)c2ccccc21` (some centres unmarked) [TC10A-Cy5] the value was 0.867 nM. Consider `CC[N+]1=C(/C=C/C=C/C=C2/c3ccccc3N(CCCCCC(=O)NCCNC(=O)CCNC(=O)[C@H](CNC(=O)C(C)(COCC(=O)NCCOCCOC3OC(CO)C(O)C(O)C3NC(C)=O)COCC(=O)NCCOCCOC3OC(CO)C(O)C(O)C3NC(C)=O)NC(=O)C(C)(COCC(=O)NCCOCCOC3OC(CO)C(O)C(O)C3NC(C)=O)COCC(=O)NCCOCCOC3OC(CO)C(O)C(O)C3NC(C)=O)C2(C)C)C(C)(C)c2ccccc21` (some centres unmarked) [TEC02A-Cy5], for which the Kd on ASGPR receptor [1] was 20.7 nM; on ASGPR receptor [2], 0.198 nM.

On to `CC[N+]1=C(/C=C/C=C/C=C2/c3ccccc3N(CCCCCC(=O)NCCNC(=O)CCCCCCCCCCCNC(=O)[C@H](CNC(=O)C(C)(COCC(=O)NCCOCCOC3OC(CO)C(O)C(O)C3NC(C)=O)COCC(=O)NCCOCCOC3OC(CO)C(O)C(O)C3NC(C)=O)NC(=O)C(C)(CCCC(=O)NCCOCCOC3OC(CO)C(O)C(O)C3NC(C)=O)COCC(=O)NCCOCCOC3OC(CO)C(O)C(O)C3NC(C)=O)C2(C)C)C(C)(C)c2ccccc21` (some centres unmarked) [TEC06A-Cy5], for which the Kd on ASGPR receptor [2] was found to be 0.496 nM. This counts as sub-nanomolar.

With `CC[N+]1=C(/C=C/C=C/C=C2/c3ccccc3N(CCCCCC(=O)NCCCC(=O)CCCCCCCCCCC(=O)N3C[C@H](OCC(=O)NCCOCCOCCOC4OC(CO)C(O)C(O)C4NC(C)=O)C[C@H]3C(=O)NC(COCCC(=O)NCCOCCOCCOC3OC(CO)C(O)C(O)C3NC(C)=O)COCCC(=O)NCCOCCOCCOC3OC(CO)C(O)C(O)C3NC(C)=O)C2(C)C)C(C)(C)c2ccccc21` (some centres unmarked) [TC12A-Cy5], binding on ASGPR receptor [2] was characterised by a dissociation constant (Kd) of 0.696 nM. The Kd values of the last two compounds are within 1.5-fold of each other.
